Among the data in article PMC10321280, “Inhibition of KMO Ameliorates Myocardial Ischemia Injury via Maintaining Mitochondrial Fusion and Fission Balance” (International Journal of Biological Sciences, 2023) are Kd values, retold here.

This assay has as its target kynurenine 3-monooxygenase (KMO; Recombinant human Kynurenine 3-hydroxylase) (Homo sapiens, UniProt O15229). The assay can be described thus: SPR (Biacore T200, KMO immobilized on CM5 chip by amine coupling, […] binding model). (SPR reads the build-up and loss of mass on a sensor chip optically.)

Chain of kynurenine 3-monooxygenase (KMO; Recombinant human Kynurenine 3-hydroxylase) (O15229 whole entry): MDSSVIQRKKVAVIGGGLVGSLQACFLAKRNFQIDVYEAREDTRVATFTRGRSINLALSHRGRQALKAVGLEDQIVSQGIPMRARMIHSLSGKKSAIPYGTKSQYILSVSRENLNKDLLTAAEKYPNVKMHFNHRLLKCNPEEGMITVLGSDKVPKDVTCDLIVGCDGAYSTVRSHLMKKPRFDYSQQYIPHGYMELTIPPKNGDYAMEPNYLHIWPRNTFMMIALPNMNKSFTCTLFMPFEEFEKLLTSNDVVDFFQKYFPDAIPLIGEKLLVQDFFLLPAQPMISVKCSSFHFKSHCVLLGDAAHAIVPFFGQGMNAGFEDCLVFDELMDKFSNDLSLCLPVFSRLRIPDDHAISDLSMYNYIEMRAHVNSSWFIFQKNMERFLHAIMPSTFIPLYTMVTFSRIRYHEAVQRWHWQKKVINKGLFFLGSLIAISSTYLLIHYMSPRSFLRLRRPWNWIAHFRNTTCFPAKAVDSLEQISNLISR

One may read the Kd as the equilibrium constant for the complex coming apart. `CC(C)=CCC[C@](C)(O[C@@H]1O[C@H](CO[C@@H]2OC[C@@H](O)[C@H](O)[C@H]2O)[C@@H](O)[C@H](O)[C@H]1O)[C@H]1CC[C@]2(C)[C@@H]1[C@H](O)C[C@@H]1[C@@]3(C)CC[C@H](O[C@@H]4O[C@H](CO)[C@@H](O)[C@H](O)[C@H]4O[C@@H]4O[C@H](CO)[C@@H](O)[C@H](O)[C@H]4O)C(C)(C)[C@@H]3CC[C@]12C` [Ginsenoside Rb3]: the Kd stood at 1960 nM.
